According to patent US20230067929A1, “HETEROCYCLIC DERIVATIVES, PHARMACEUTICAL COMPOSITIONS AND THEIR USE IN THE TREATMENT, AMELIORATION OR PREVENTION OF CANCER” (Tolremo Therapeutics AG, priority 2018, published 2023):

The compounds below were run on A375 cells (assay: A375 cell immunofluorescence assay (with 1 μM S1152 and 0.5 μM S1008), EC50). Settings: 1 μM S1152 + 0.5 μM S1008, one day, ratio FL2/FL3 staining (sc-365823 antibody).
Format: cell-based
How it was run: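 A375 cells were treated for 1 day with 1 μM S1152, 0.5 μM S1008 and compound dose ranges in DMEM/10% FCS/2 mM glutamine, then fixed, permeabilized and immunostained (secondary antibody 2 μg/ml). FL2 (500-530 nm) signal was measured in propidium iodide-defined objects (FL3, 565-600 nm). The normalized ln FL2/ln FL3 ratio was log-transformed, and EC50 came from a 4-parameter fit.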

Compound | EC50
CCC(=O)N1CCCC(c2nc(Nc3cccc(F)c3)cc(-c3cccnc3)n2)C1 (centres unmarked) | 1 to 10 µM
CCC(=O)N1CCCC(c2nc(Nc3cccc(F)c3)cc(C3=CCCC3)n2)C1 (centres unmarked) | > 10 µM
CCC(=O)N1CCCC(c2nc(Nc3cccc(F)c3)cc(-c3cccc(N4CCOCC4)c3)n2)C1 (centres unmarked) | 1 to 10 µM
CCC(=O)N1CCCC(c2nc(Nc3cccc(F)c3)cc(-c3cccc(OC(F)F)c3)n2)C1 (centres unmarked) | > 10 µM
CCC(=O)N1CCCC(c2nc(Nc3cccc(F)c3)cc(-c3ccc(N(C)C)nc3)n2)C1 (centres unmarked) | > 10 µM
CCC(=O)N1CCCC(c2nc(Nc3cccc(F)c3)cc(-c3cncc(C)c3)n2)C1 (centres unmarked) | 1 to 10 µM
CCC(=O)N1CCCC(c2nc(Nc3cccc(F)c3)cc(-c3ccccc3OC(F)(F)F)n2)C1 (centres unmarked) | > 10 µM
CCC(=O)N1CCCC(c2nc(Nc3cccc(F)c3)cc(-c3ccsc3)n2)C1 (centres unmarked) | > 10 µM
CCC(=O)N1CCCC(c2nc(Nc3cccc(F)c3)cc(-c3cncc(OC)c3)n2)C1 (centres unmarked) | 1 to 10 µM
CCC(=O)N1CCCC(c2nc(Nc3cccc(F)c3)cc(-c3cnn(C)c3)n2)C1 (centres unmarked) | > 10 µM
CCC(=O)N1CCCC(c2nc(Nc3cccc(F)c3)cc(-c3ccc(OC)cc3)n2)C1 (centres unmarked) | 1 to 10 µM
CC(=O)N1CCCC(c2cc(Nc3cccc(F)c3)nc(-c3cccnc3)c2)C1 (centres unmarked) | > 10 µM
CC(=O)N1CC2(c3nc(Nc4cccc(F)c4)cc(-c4cccnc4)n3)CCC1CC2 | > 10 µM
CN1CCC(c2nc(Nc3cccc(F)c3)cc(-c3cccnc3)n2)CC1=O (centres unmarked) | > 10 µM
CN1CC(c2nc(Nc3cccc(F)c3)cc(-c3cccnc3)n2)CCC1=O (centres unmarked) | > 10 µM
CC(=O)N1CC(C)CC(c2nc(Nc3cccc(F)c3)cc(-c3cccnc3)n2)C1 (centres unmarked) | < 1 µM
O=C1CCC2CCC(c3nc(Nc4cccc(F)c4)cc(-c4cccnc4)n3)CN12 (centres unmarked) | > 10 µM
CC(=O)N1C[C@H](c2nc(Nc3cccc(F)c3)cc(-c3cccnc3)n2)CC[C@@H]1C | < 1 µM
CN1CC(c2nc(Nc3cccc(F)c3)cc(-c3cccnc3)n2)CC1=O (centres unmarked) | > 10 µM
CC(=O)N1CC(c2nc(Nc3cccc(F)c3)cc(-c3cccnc3)n2)CC(F)(F)C1 (centres unmarked) | > 10 µM
CC(=O)N1CC(c2ccccc2)CC(c2nc(Nc3cccc(F)c3)cc(-c3cccnc3)n2)C1 (centres unmarked) | < 1 µM
CC(=O)N1CC(c2nc(Nc3cccc(F)c3)cc(-c3cccnc3)n2)CCC1(C)C (centres unmarked) | > 10 µM
CC(=O)N1CC(c2nc(Nc3cccc(F)c3)cc(-c3cccnc3)n2)CC2CCCCC21 (centres unmarked) | 1 to 10 µM

Compound | EC50
CC(=O)N1CCCCC(c2nc(Nc3cccc(F)c3)cc(-c3cccnc3)n2)C1 (centres unmarked) | < 1 µM
CC(=O)N1CC(c2nc(Nc3cccc(F)c3)cc(-c3cccnc3)n2)Cc2ccccc21 (centres unmarked) | > 10 µM
CC(=O)N1CC(OCc2ccccc2)CC(c2nc(Nc3cccc(F)c3)cc(-c3cccnc3)n2)C1 (centres unmarked) | 1 to 10 µM
CC(=O)N1CCCC(c2nc(Nc3cccc(F)c3)cc(-c3cccnc3)n2)C1C (centres unmarked) | > 10 µM
CC(=O)N1CC(c2nc(Nc3cccc(F)c3)cc(-c3cccnc3)n2)CC(C)C1C (centres unmarked) | < 1 µM
COC(=O)N1CCOCC(c2nc(Nc3cccc(F)c3)cc(-c3cccnc3)n2)C1 (centres unmarked) | 1 to 10 µM
CC(=O)N1CCOCC(c2nc(Nc3cccc(F)c3)cc(-c3cccnc3)n2)C1 (centres unmarked) | 1 to 10 µM
CC(=O)N1CC(c2nc(Nc3cccc(F)c3)cc(-c3cccnc3)n2)CCC1c1ccccc1 (centres unmarked) | > 10 µM
CC(=O)N1C[C@H](c2nc(Nc3cccc(C)c3)cc(-c3cccnc3)n2)CC[C@@H]1C(F)(F)F | < 1 µM
CC(=O)N1C[C@H](c2nc(Nc3cccc(F)c3)cc(-c3cccnc3)n2)CC[C@@H]1C(F)(F)F | < 1 µM
O=C1CCC2C(c3nc(Nc4cccc(F)c4)cc(-c4cccnc4)n3)CCCN12 (centres unmarked) | 1 to 10 µM
CC(=O)NCCOCCOCCNC(=O)c1ccc(-c2cc(Nc3cccc(F)c3)nc(C3CCCN(C(C)=O)C3)n2)cc1 (centres unmarked) | > 10 µM
CC(=O)N1CCCC(c2cc(Nc3cccc(F)c3)nc(-c3cccnc3)n2)C1 (centres unmarked) | 1 to 10 µM
CC(=O)N1CCCC(c2cc(-c3cccnc3)nc(Nc3cccc(F)c3)n2)C1 (centres unmarked) | 1 to 10 µM
CC(=O)NCCOCCOCCOCC(=O)Nc1ccc(-c2cc(Nc3cccc(F)c3)nc(C3CCCN(C(C)=O)C3)n2)cc1 (centres unmarked) | 1 to 10 µM
O=C1CCCC2CCC(c3nc(Nc4cccc(F)c4)cc(-c4cccnc4)n3)CN12 (centres unmarked) | > 10 µM
O=C1CCCC2C(c3nc(Nc4cccc(F)c4)cc(-c4cccnc4)n3)CCCN12 (centres unmarked) | 1 to 10 µM
COc1cncc(-c2cc(Nc3cccc(F)c3)nc([C@@H]3CCCN(C(C)=O)C3)n2)c1 | < 1 µM
CC(=O)NCCOCCOCCOc1cncc(-c2cc(Nc3cccc(F)c3)nc(C3CCCN(C(C)=O)C3)n2)c1 (centres unmarked) | 1 to 10 µM
CC(=O)N1C[C@H](c2nc(Nc3cccc(F)c3)cc(-c3cncc(O)c3)n2)CC[C@@H]1C | < 1 µM
CC(=O)N1C[C@@H](c2nc(Nc3cccc(F)c3)cc(-c3cncc(O)c3)n2)CC[C@H]1C | > 10 µM
C#Cc1cc(Nc2cccc(F)c2)nc(C2CCCN(C(C)=O)C2)n1 (centres unmarked) | > 10 µM
CC(=O)N1CCCC(c2nc(Nc3cccc(F)c3)cc(-c3cnn[nH]3)n2)C1 (centres unmarked) | > 10 µM

Compound | EC50
CC(=O)N1CC(O)CC(c2nc(Nc3cccc(F)c3)cc(-c3cccnc3)n2)C1 (centres unmarked) | 1 to 10 µM
CC(=O)N1CCCC(c2nc(Nc3cccc(F)c3)cc(-c3cncc(C4COC4)c3)n2)C1 (centres unmarked) | < 1 µM
CC(=O)N1CCCC(c2nc(Nc3cccc(C)c3)cc(-c3cncc(N4CCOCC4)c3)n2)C1 (centres unmarked) | < 1 µM
CC(=O)N1CCCC(c2nc(Nc3cccc(F)c3)cc(-c3cncc(N4CCN(C)CC4)c3)n2)C1 (centres unmarked) | > 10 µM
CC(=O)N1CCCC(c2nc(Nc3cccc(F)c3)cc(-c3cncc4nc(C)oc34)n2)C1 (centres unmarked) | < 1 µM
CC(=O)N1CCCC(c2nc(Nc3cccc(F)c3)cc(-c3cncc4cc[nH]c34)n2)C1 (centres unmarked) | > 10 µM
CC(=O)N1CCCC(c2nc(Nc3cccc(F)c3)cc(-c3cncc(-c4nccs4)c3)n2)C1 (centres unmarked) | < 1 µM
CC(=O)N1CCCC(c2nc(Nc3cccc(C)c3)cc(-c3cncc(-c4nccs4)c3)n2)C1 (centres unmarked) | < 1 µM
CC(=O)N1CCCC(c2nc(Nc3cccc(F)c3)cc(-c3cncc(C(=O)O)c3)n2)C1 (centres unmarked) | > 10 µM
CC(=O)N1CCCC(c2nc(Nc3cccc(F)c3)cc(-c3cncc(C(=O)N4CCOCC4)c3)n2)C1 (centres unmarked) | 1 to 10 µM
CC(=O)N1CCCC(c2nc(Nc3cccc(F)c3)cc(-c3cncc(C(=O)N4C[C@@H]5C[C@H]4CO5)c3)n2)C1 (some centres unmarked) | 1 to 10 µM
CC(=O)N1CCCC(c2nc(Nc3cccc(F)c3)cc(-c3cncc(C(=O)N4CCS(=O)(=O)CC4)c3)n2)C1 (centres unmarked) | > 10 µM
CC(=O)N1CCCC(c2nc(Nc3cccc(F)c3)cc(-c3ccc(N4CCOCC4)nc3)n2)C1 (centres unmarked) | 1 to 10 µM
CC(=O)N1CCCC(c2nc(Nc3cccc(F)c3)cc(-c3ccc(N4C[C@@H]5C[C@H]4CO5)nc3)n2)C1 (some centres unmarked) | 1 to 10 µM
CC(=O)N1CCCC(c2nc(Nc3cccc(F)c3)cc(-c3ccc(N4CCN(C)CC4)nc3)n2)C1 (centres unmarked) | > 10 µM
CC(=O)N1CCCC(c2nc(Nc3cccc(F)c3)cc(-c3ccc(N4CCS(=O)(=O)CC4)nc3)n2)C1 (centres unmarked) | > 10 µM
CC(=O)N1C[C@H](c2nc(Nc3cncc(C)c3)cc(-c3cccnc3)n2)CC[C@@H]1C | < 1 µM
CC(=O)N1CCCC(c2nc(Nc3ccccn3)cc(-c3cccnc3)n2)C1 (centres unmarked) | > 10 µM
CC(=O)N1CCCC(c2nc(Nc3ccccn3)cc(-c3cncc4[nH]ccc34)n2)C1 (centres unmarked) | 1 to 10 µM
CC(=O)N1CCCC(c2nc(Nc3ccccn3)cc(-c3cncnc3)n2)C1 (centres unmarked) | > 10 µM
CC(=O)N1CCCC(c2nc(Nc3cncc(C)c3)cc(-c3cncnc3)n2)C1 (centres unmarked) | 1 to 10 µM
CC(=O)N1CCCC(c2nc(Nc3cncc(C)c3)cc(-c3cncc4[nH]ccc34)n2)C1 (centres unmarked) | 1 to 10 µM
CC(=O)N1CCCC(c2nc(Nc3cccnc3)cc(-c3cccnc3)n2)C1 (centres unmarked) | 1 to 10 µM

Compound | EC50
CC(=O)N1CCCC(c2nc(Nc3cccnc3)cc(-c3cncc4[nH]ccc34)n2)C1 (centres unmarked) | > 10 µM
CC(=O)N1CCCC(c2nc(Nc3cccnc3)cc(-c3cncnc3)n2)C1 (centres unmarked) | > 10 µM
CC(=O)N1CCCC(c2nc(Nc3nc(C)co3)cc(-c3cccnc3)n2)C1 (centres unmarked) | > 10 µM
CC(=O)N1CCCC(c2nc(Nc3ccon3)cc(-c3cncc4[nH]ccc34)n2)C1 (centres unmarked) | > 10 µM
CC(=O)N1CCCC(c2nc(Nc3ccncc3)cc(-c3cccnc3)n2)C1 (centres unmarked) | 1 to 10 µM
CC(=O)N1CCCC(c2nc(Nc3cncc(C)n3)cc(-c3cccnc3)n2)C1 (centres unmarked) | 1 to 10 µM
CC(=O)N1CCCC(c2nc(Nc3cncc(C)n3)cc(-c3cncnc3)n2)C1 (centres unmarked) | > 10 µM
CC(=O)N1CCCC(c2nc(Nc3cncnc3)cc(-c3cccnc3)n2)C1 (centres unmarked) | > 10 µM
CC(=O)N1CCCC(c2nc(Nc3ccncn3)cc(-c3cccnc3)n2)C1 (centres unmarked) | > 10 µM
CC(=O)N1C[C@H](c2nc(Nc3cncc(C)c3)cc(-c3cncc(C)c3)n2)CC[C@@H]1C | < 1 µM
CC(=O)N1C[C@H](c2nc(Nc3cncc(C)c3)cc(-c3cncc4[nH]ccc34)n2)CC[C@@H]1C | < 1 µM
CC(=O)N1C[C@H](c2nc(Nc3cncc(C)c3)cc(-c3cncc(C4COC4)c3)n2)CC[C@@H]1C | < 1 µM
CC(=O)N1CCCC(c2nc(Nc3cncc(F)c3)cc(-c3cccnc3)n2)C1 (centres unmarked) | 1 to 10 µM
CC(=O)N1CCCC(c2nc(Nc3cccnn3)cc(-c3cccnc3)n2)C1 (centres unmarked) | > 10 µM
CC(=O)N1CCCC(c2nc(Nc3ccnnc3)cc(-c3cccnc3)n2)C1 (centres unmarked) | > 10 µM
CC(=O)N1CCCC(c2nc(Nc3ccnc(C)c3)cc(-c3cccnc3)n2)C1 (centres unmarked) | 1 to 10 µM
CC(=O)N1C[C@H](c2nc(Nc3ccncc3)cc(-c3cccnc3)n2)CC[C@@H]1C | < 1 µM
CC(=O)N1CCCC(c2nc(Nc3cnccn3)cc(-c3cccnc3)n2)C1 (centres unmarked) | > 10 µM
CC(=O)N1C[C@H](c2nc(Nc3cccnc3)cc(-c3cccnc3)n2)CC[C@@H]1C | < 1 µM
CC(=O)N1CCCC(c2nc(NC3CCCCC3)cc(-c3cccnc3)n2)C1 (centres unmarked) | > 10 µM
CC(=O)N1CCCC(c2nc(NC3CCCC3)cc(-c3cccnc3)n2)C1 (centres unmarked) | > 10 µM
CC(=O)N1CCCC(c2nc(NC34CC(C3)C4)cc(-c3cccnc3)n2)C1 (centres unmarked) | > 10 µM
CC(=O)N1CCCC(c2nc(NC34CC(C3)C4)cc(-c3cncc4[nH]ccc34)n2)C1 (centres unmarked) | 1 to 10 µM
